System: acetyl choline or histamine induced bronchospasm
Assay: Duration of action: inhibition of acetyl choline or histamine induced bronchospasm by equiactive i.v. doses
Type: in vivo
Conditions: anaesthetised guinea-pigs
Text: We prefer the B₂ selective bronchodilator to be long acting. By the term 'long acting' we mean that the compound has a longer duration of action as a relaxant of bronchial smooth muscle in pharmacological tests than does isoprenaline or orciprenaline. For duration of action studies, a comparison is made of the effect of equiactive i.v. doses as inhibitors of acetyl choline or histamine induced bronchospasm in anaesthetised guinea-pigs. The duration of action of isoprenaline in such a test is relatively short (control response back to normal in 10 to 25 minutes). In the case of a compound with a longer duration of action, the control response would only return to normal over a several-fold longer period of time.

CC(C)NCC(O)c1ccc(O)c(O)c1 (stereo not shown) [isoprenaline]
duration of action (control response back to normal): 10 to 25 min

From patent publication EP0241134B1, “Pharmaceutical mixture comprising nedocromil or a salt thereof in combination with a bronchodilator” (FISONS plc, priority 1986, dated 1987)
